In the CheMixHub viscosity set:
Values joined by “and” are separate entries in the source; they are usually repeats but may differ in a detail not shown here. Identical values can stand only once.

Test: xn = mol fraction of the nth substance listed

CCOC(=O)CCl + Cc1ccccc1
viscosity [mPa·s], 101.3 kPa
Conditions | x1 = 0.1004 | x1 = 0.207 | x1 = 0.299 | x1 = 0.4013 | x1 = 0.5048 | x1 = 0.6083 | x1 = 0.6963 | x1 = 0.8022 | x1 = 0.9006
298.15 K | 0.594 | 0.631 | 0.671 | 0.714 | 0.768 | 0.823 | 0.878 | 0.945 | 1.02
303.15 K | 0.561 | 0.594 | 0.63 | 0.669 | 0.719 | 0.77 | 0.818 | 0.881 | 0.947
308.15 K | 0.528 | 0.559 | 0.59 | 0.626 | 0.671 | 0.718 | 0.758 | 0.817 | 0.873

O=C(OCc1ccccc1)c1ccccc1 + Cc1ccccc1
298.15 K, 101 kPa
Conditions | viscosity [mPa·s]
x1 = 0.2369 | 1.183
x1 = 0.4262 | 2.015
x1 = 0.6505 | 3.614
x1 = 0.789 | 5.08
x1 = 0.9002 | 6.66

c1ccc2c(c1)CCCC2 + Cc1ccccc1
101.3 kPa
Conditions | viscosity
298 K, x2 = 0.2 | 1.55 mPa·s
298.1 K, x2 = 0.4 | 1.133 mPa·s
298.2 K, x2 = 0.6 | 0.9208 mPa·s
298.2 K, x2 = 0.8 | 0.7036 mPa·s
303.2 K, x2 = 0.5 | 0.9625 mPa·s
308.2 K, x2 = 0.4 | 0.9772 mPa·s
308.2 K, x2 = 0.6 | 0.8034 mPa·s
308.2 K, x2 = 0.8 | 0.6177 mPa·s and 0.6155 mPa·s
313.1 K, x2 = 0.2 | 1.209 mPa·s
313.1 K, x2 = 0.5 | 0.8373 mPa·s
318.1 K, x2 = 0.4 | 0.8532 mPa·s
318.2 K, x2 = 0.6 | 0.7034 mPa·s
318.2 K, x2 = 0.8 | 0.553 mPa·s
323.1 K, x2 = 0.5 | 0.7376 mPa·s

CCCCOCCO + Cc1ccccc1C
viscosity [mPa·s], 101 kPa
Conditions | 298.15 K | 308.15 K
x1 = 0.0549 | 0.797 | 0.686
x1 = 0.1475 | 0.891 | 0.756
x1 = 0.2508 | 1.004 | 0.84
x1 = 0.3485 | 1.129 | 0.933
x1 = 0.4527 | 1.286 | 1.052
x1 = 0.5 | 1.366 | 1.113
x1 = 0.5489 | 1.457 | 1.182
x1 = 0.6483 | 1.666 | 1.341
x1 = 0.7518 | 1.925 | 1.54
x1 = 0.8493 | 2.216 | 1.765
x1 = 0.9524 | 2.586 | 2.053

CNC=O + Cc1ccccc1N
viscosity [mPa·s], 100 kPa
Conditions | x1 = 0.0896 | x1 = 0.1601 | x1 = 0.2501 | x1 = 0.3425 | x1 = 0.4328 | x1 = 0.5424 | x1 = 0.6554 | x1 = 0.7342 | x1 = 0.8414
303.15 K | 3.114 | 3 | 2.853 | 2.702 | 2.553 | 2.369 | 2.179 | 2.045 | 1.86
308.15 K | 2.708 | 2.617 | 2.498 | 2.375 | 2.254 | 2.105 | 1.95 | 1.84 | 1.689
313.15 K | 2.393 | 2.317 | 2.219 | 2.117 | 2.016 | 1.892 | 1.763 | 1.671 | 1.544
318.15 K | 2.081 | 2.022 | 1.946 | 1.865 | 1.786 | 1.688 | 1.585 | 1.513 | 1.411

CCCCCCBr + ClC(Cl)(Cl)Cl
101 kPa
Conditions | viscosity [mPa·s]
298.15 K, x1 = 0.1135 | 0.8881
298.15 K, x1 = 0.1518 | 0.8858
298.15 K, x1 = 0.1823 | 0.8835
298.15 K, x1 = 0.2319 | 0.8822
298.15 K, x1 = 0.3098 | 0.8844
298.15 K, x1 = 0.474 | 0.8943
298.15 K, x1 = 0.6449 | 0.9113
303.45 K, x1 = 0.0686 | 0.8329
303.45 K, x1 = 0.0894 | 0.8281
303.45 K, x1 = 0.1554 | 0.8277
303.45 K, x1 = 0.1952 | 0.8288
303.45 K, x1 = 0.2666 | 0.8328
303.45 K, x1 = 0.424 | 0.8436
303.45 K, x1 = 0.5955 | 0.8555
303.45 K, x1 = 0.7896 | 0.8708
313.35 K, x1 = 0.0691 | 0.7236
313.35 K, x1 = 0.0909 | 0.723
313.35 K, x1 = 0.1303 | 0.7251
313.35 K, x1 = 0.1568 | 0.7252
313.35 K, x1 = 0.1996 | 0.7259
313.35 K, x1 = 0.2736 | 0.7309
313.35 K, x1 = 0.5015 | 0.7462
313.35 K, x1 = 0.7896 | 0.7649

CCOCCOCCOCC + ClC(Cl)(Cl)Cl
298.15 K, 101 kPa
Conditions | viscosity [mPa·s]
x1 = 0.0066 | 0.914
x1 = 0.0198 | 0.932
x1 = 0.0498 | 0.975
x1 = 0.0871 | 1.016
x1 = 0.127 | 1.051
x1 = 0.1781 | 1.093
x1 = 0.2051 | 1.115
x1 = 0.2354 | 1.134
x1 = 0.2797 | 1.161
x1 = 0.3206 | 1.18
x1 = 0.3371 | 1.189
x1 = 0.3614 | 1.202
x1 = 0.3768 | 1.21
x1 = 0.4165 | 1.225
x1 = 0.4689 | 1.241
x1 = 0.5264 | 1.257
x1 = 0.5651 | 1.269
x1 = 0.599 | 1.269
x1 = 0.6708 | 1.274
x1 = 0.715 | 1.286
x1 = 0.7943 | 1.293
x1 = 0.8245 | 1.283
x1 = 0.8784 | 1.282
x1 = 0.9126 | 1.282
x1 = 0.9535 | 1.273

CCCCOCCO + ClC(Cl)Cl
298.15 K, 101.3 kPa
Conditions | viscosity [mPa·s]
x1 = 0.0035 | 0.536
x1 = 0.0216 | 0.555
x1 = 0.0344 | 0.57
x1 = 0.0767 | 0.628
x1 = 0.1259 | 0.703
x1 = 0.2281 | 0.901
x1 = 0.2903 | 1.042
x1 = 0.3627 | 1.235
x1 = 0.4472 | 1.494
x1 = 0.5049 | 1.659
x1 = 0.5823 | 1.894
x1 = 0.6772 | 2.175
x1 = 0.7828 | 2.429
x1 = 0.8296 | 2.525
x1 = 0.9123 | 2.702

CCOCCOCCOCC + ClC(Cl)Cl
298.15 K, 101 kPa
Conditions | viscosity [mPa·s]
x1 = 0.0089 | 0.538
x1 = 0.0178 | 0.56
x1 = 0.0263 | 0.579
x1 = 0.0446 | 0.62
x1 = 0.0878 | 0.723
x1 = 0.1473 | 0.862
x1 = 0.1744 | 0.916
x1 = 0.2224 | 1.012
x1 = 0.2736 | 1.108
x1 = 0.3402 | 1.194
x1 = 0.345 | 1.208
x1 = 0.3725 | 1.248
x1 = 0.4081 | 1.284
x1 = 0.4541 | 1.316
x1 = 0.509 | 1.341
x1 = 0.5754 | 1.353
x1 = 0.626 | 1.358
x1 = 0.6804 | 1.352
x1 = 0.7347 | 1.342
x1 = 0.7875 | 1.326
x1 = 0.8348 | 1.312
x1 = 0.8675 | 1.309
x1 = 0.9216 | 1.292
x1 = 0.9756 | 1.278

CCOCCOCCOCC + ClCCl
298.15 K, 101 kPa
Conditions | viscosity [mPa·s]
x1 = 0.0052 | 0.409
x1 = 0.0103 | 0.413
x1 = 0.0277 | 0.449
x1 = 0.0559 | 0.492
x1 = 0.0751 | 0.516
x1 = 0.1056 | 0.576
x1 = 0.1326 | 0.622
x1 = 0.1807 | 0.699
x1 = 0.2427 | 0.784
x1 = 0.2846 | 0.843
x1 = 0.3028 | 0.87
x1 = 0.3207 | 0.893
x1 = 0.3629 | 0.948
x1 = 0.4227 | 1.006
x1 = 0.445 | 1.031
x1 = 0.5119 | 1.096
x1 = 0.5582 | 1.131
x1 = 0.583 | 1.148
x1 = 0.6108 | 1.172
x1 = 0.6567 | 1.192
x1 = 0.7048 | 1.217
x1 = 0.7501 | 1.233
x1 = 0.803 | 1.246
x1 = 0.8457 | 1.264
x1 = 0.9124 | 1.268
x1 = 0.9488 | 1.269
x1 = 0.9709 | 1.27
